The structures appear in SMILES notation.

In series [1] the target is Prothrombin (Bos taurus, UniProt P00735).
Description: Compound was tested for inhibitory activity against bovine thrombin
Series [2] can be described thus: Compound was tested for percent of oral bioavailability at 10 […] dose in dogs. Type of series: ADME, organism-based, Canis lupus familiaris. To be noted: dog, in vivo, read-out: Bioavailabiility.
For a further series, the target named is Coagulation factor X (Homo sapiens, UniProt P00742). Description: The compound was tested for inhibitory activity against Coagulation factor X.
Sequence of Coagulation factor X (P00742 41-179 limits assumed): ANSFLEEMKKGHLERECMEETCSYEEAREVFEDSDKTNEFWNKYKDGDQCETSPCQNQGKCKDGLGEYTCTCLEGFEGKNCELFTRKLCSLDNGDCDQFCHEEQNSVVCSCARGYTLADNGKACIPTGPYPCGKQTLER
Sequence of Coagulation factor X (P00742 235-488 limits assumed): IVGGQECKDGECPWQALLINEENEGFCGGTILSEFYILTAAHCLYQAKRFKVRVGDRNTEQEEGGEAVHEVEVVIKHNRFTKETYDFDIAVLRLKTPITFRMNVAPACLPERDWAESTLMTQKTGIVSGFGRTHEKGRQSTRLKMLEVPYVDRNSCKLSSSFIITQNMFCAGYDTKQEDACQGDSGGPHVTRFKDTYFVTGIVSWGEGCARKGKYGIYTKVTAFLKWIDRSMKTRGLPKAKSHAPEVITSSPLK
The next series concerns the target Plasminogen (Homo sapiens, UniProt P00747). Description: The compound was tested for inhibitory activity against human plasmin.
Series [3] concerns the target Prothrombin (Homo sapiens, UniProt P00734). Description: Compound was tested for inhibitory activity against human thrombin.
The target of series [4] is Tissue-type plasminogen activator (Homo sapiens, UniProt P00750). Briefly: The compound was tested for inhibitory activity against tissue plasminogen activator.
Sequence of Tissue-type plasminogen activator (P00750 whole entry): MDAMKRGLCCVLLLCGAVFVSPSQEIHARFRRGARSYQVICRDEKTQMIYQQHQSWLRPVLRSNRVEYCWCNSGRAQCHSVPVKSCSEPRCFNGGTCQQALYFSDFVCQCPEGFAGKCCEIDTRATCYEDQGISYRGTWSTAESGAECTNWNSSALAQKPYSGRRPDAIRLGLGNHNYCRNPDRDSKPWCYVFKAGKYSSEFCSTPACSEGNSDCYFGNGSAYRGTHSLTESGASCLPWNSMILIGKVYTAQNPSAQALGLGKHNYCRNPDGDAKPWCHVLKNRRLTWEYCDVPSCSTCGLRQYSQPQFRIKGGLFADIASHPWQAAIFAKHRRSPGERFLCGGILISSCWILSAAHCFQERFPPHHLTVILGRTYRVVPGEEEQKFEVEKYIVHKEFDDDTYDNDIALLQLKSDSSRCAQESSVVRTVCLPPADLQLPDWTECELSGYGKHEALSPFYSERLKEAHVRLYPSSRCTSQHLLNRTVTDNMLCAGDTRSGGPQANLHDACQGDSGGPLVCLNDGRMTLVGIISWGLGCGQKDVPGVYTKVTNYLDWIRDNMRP
Series [5] can be described thus: Half life was evaluated in dog. The conditions noted are these: in vivo. Format: ADME, organism-based, Canis lupus familiaris.

Sequence of Plasminogen (P00747 97-580 limits assumed): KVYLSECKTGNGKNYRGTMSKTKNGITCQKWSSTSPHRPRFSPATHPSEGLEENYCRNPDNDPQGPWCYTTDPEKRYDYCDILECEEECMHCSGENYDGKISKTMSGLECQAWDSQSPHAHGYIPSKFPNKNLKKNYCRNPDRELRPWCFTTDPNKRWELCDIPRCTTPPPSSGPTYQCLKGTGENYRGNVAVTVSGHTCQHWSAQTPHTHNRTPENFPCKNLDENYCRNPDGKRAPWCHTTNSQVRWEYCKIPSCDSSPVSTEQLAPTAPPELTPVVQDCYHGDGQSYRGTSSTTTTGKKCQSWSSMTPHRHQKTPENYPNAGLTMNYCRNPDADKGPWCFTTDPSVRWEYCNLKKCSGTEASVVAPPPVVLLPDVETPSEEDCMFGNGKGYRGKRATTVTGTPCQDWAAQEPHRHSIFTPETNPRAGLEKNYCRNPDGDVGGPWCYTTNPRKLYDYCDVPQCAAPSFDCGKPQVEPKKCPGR
Sequence of Plasminogen (P00747 581-810 limits assumed): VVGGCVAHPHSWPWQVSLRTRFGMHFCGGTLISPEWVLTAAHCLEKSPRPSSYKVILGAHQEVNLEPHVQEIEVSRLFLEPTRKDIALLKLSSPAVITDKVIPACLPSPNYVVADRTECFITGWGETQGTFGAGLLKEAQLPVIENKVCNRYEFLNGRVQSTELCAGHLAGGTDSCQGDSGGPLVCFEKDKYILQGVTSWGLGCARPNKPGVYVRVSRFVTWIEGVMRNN

With `NN=C(N)c1ccc(C[C@H](NS(=O)(=O)c2ccc3ccccc3c2)C(=O)N(CCO)C2CCCC2)cc1`, the affinity at Prothrombin [1], expressed as Ki, was 7040 nM.
Same read-out and setting: as for `CCN(C(=O)[C@H](Cc1ccc(C(=N)NN)cc1)NS(=O)(=O)c1ccc2ccccc2c1)C1CCCC1`, the figure is 4 nM; as for `N=C(NN)c1ccc(C[C@H](NS(=O)(=O)c2ccc3ccccc3c2)C(=O)N2CCCCCC2)cc1`, 1470 nM.
`CN(C(=O)[C@H](Cc1ccc(C(=N)NN)cc1)NS(=O)(=O)c1ccc2ccccc2c1)C1CCCC1`: the bioavailability in series [2] worked out at 58%. Further, the Ki on Coagulation factor X was 1100 nM; on Plasminogen, 47900 nM; on Prothrombin [3], 0.38 nM; in series [4], 27200 nM; on Prothrombin [1] it was 1.1 nM. The molecule also showed a half-life in series [5] of 1.87 h.

A word on the Ki: it is a measure of affinity in units of concentration, obtained from inhibition or displacement. The term half-life denotes how long it takes for the measured level to halve. High values mean slow loss, low ones fast loss.
